Data published in ChEMBL document CHEMBL3390848, “Affinity selection and sequence-activity relationships of HIV-1 membrane fusion inhibitors directed at the drug-resistant variants” (Medchemcomm, 2010).
Residues, ends and D or L forms follow the SMILES beside them.

Key:
[1] = test system: Human immunodeficiency virus 1; assay: Antiviral activity against HIV1 NL4-3 harboring gp41 D36G mutant infected in human HeLa cells expressing CD4-LTR-beta-gal assessed as inhibition of viral replication after 48 hrs by MAGI assay; assay type: functional, organism-based
[2] = test system: Human immunodeficiency virus 1; assay: Binding affinity to HIV1 His-tagged N-terminal heptad repeat of envelope glycoprotein gp41 assessed as recovery of N54-drug complex after 2 hrs by LC-MS analysis; set-up: concentration or dose not given beside the values
[3] = test system: Human immunodeficiency virus 1; assay: Binding affinity to HIV1 His-tagged N-terminal heptad repeat of envelope glycoprotein gp41 assessed as recovery of N54 N43D mutant-drug complex after 2 hrs by LC-MS analysis; set-up: concentration or dose not given beside the values
[4] = test system: Human immunodeficiency virus 1; assay: Thermal stability of HIV1 envelope glycoprotein gp41 His-tagged N-terminal heptad repeat N54-drug complex assessed as thermal unfolding transition state by measuring molar ellipticity at 4 to 90 degC by circular dichroic spectra analysis
[5] = test system: Human immunodeficiency virus 1; assay: Thermal stability of HIV1 envelope glycoprotein gp41 His-tagged N-terminal heptad repeat N54 N43D mutant-drug complex assessed as thermal unfolding transition state by measuring molar ellipticity at 4 to 90 degC by circular dichroic spectra analysis
[6] = test system: Envelope glycoprotein gp160 (Human immunodeficiency virus 1), Q72502 [V38A]; assay: Binding affinity to HIV1 His-tagged N-terminal heptad repeat of envelope glycoprotein gp41 assessed as recovery of N54 V38A mutant-drug complex after 2 hrs by LC-MS analysis; set-up: concentration or dose not given beside the values
[7] = test system: Envelope glycoprotein gp160 (Human immunodeficiency virus 1), Q72502 [V38A]; assay: Thermal stability of HIV1 envelope glycoprotein gp41 His-tagged N-terminal heptad repeat N54 V38A mutant-drug complex assessed as thermal unfolding transition state by measuring molar ellipticity at 4 to 90 degC by circular dichroic spectra analysis

With `CC[C@H](C)[C@H](NC(=O)[C@H](CC(C)C)NC(=O)[C@H](CCC(=O)O)NC(=O)[C@H](CCC(=O)O)NC(=O)[C@@H](NC(=O)[C@H](CC(C)C)NC(=O)[C@H](CO)NC(=O)[C@@H](NC(=O)[C@H](Cc1ccc(O)cc1)NC(C)=O)[C@@H](C)O)[C@@H](C)CC)C(=O)N[C@@H](CCCCN)C(=O)N[C@@H](CCCCN)C(=O)N[C@@H](C)C(=O)N[C@@H](CCC(=O)O)C(=O)N[C@@H](CCC(=O)O)C(=O)N[C@@H](CCC(N)=O)C(=O)N[C@@H](CCC(N)=O)C(=O)N[C@@H](CCCCN)C(=O)N[C@@H](CCCCN)C(=O)N[C@@H](CC(N)=O)C(=O)N[C@@H](CCC(=O)O)C(=O)N[C@@H](CCC(=O)O)C(=O)N[C@@H](CCC(=O)O)C(=O)N[C@@H](CC(C)C)C(=O)N[C@@H](CCCCN)C(=O)N[C@@H](CCCCN)C(=O)N[C@@H](CC(C)C)C(=O)N[C@@H](CCC(=O)O)C(=O)N[C@@H](CCC(=O)O)C(=O)N[C@@H](Cc1c[nH]c2ccccc12)C(=O)N[C@@H](C)C(=O)N[C@@H](CCCCN)C(=O)N[C@@H](CCCCN)C(=O)N[C@@H](Cc1c[nH]c2ccccc12)C(=O)N[C@@H](CC(N)=O)C(=O)N[C@@H](Cc1c[nH]c2ccccc12)C(=O)N[C@@H](Cc1ccccc1)C(N)=O` (Ac-YTSLIEELIKKAEEQQKKNEEELKKLEEWAKKWNWF-NH2) the EC50 [1] was 0.3 nM, the Activity [2] was 10% and the Activity [3] was 10.2%. It also gave a Tm [4] of 80.1 °C, a Tm [5] of 71.9 °C and an Activity [6] of 10%. For the same compound, the Tm [7] was 64.6 °C.

For `CC[C@H](C)[C@H](NC(=O)[C@H](CC(C)C)NC(=O)[C@H](CCC(=O)O)NC(=O)[C@H](CCC(=O)O)NC(=O)[C@@H](NC(=O)[C@H](CC(C)C)NC(=O)[C@H](CO)NC(=O)[C@@H](NC(=O)[C@H](Cc1ccc(O)cc1)NC(C)=O)[C@@H](C)O)[C@@H](C)CC)C(=O)N[C@@H](CCCCN)C(=O)N[C@@H](CCCCN)C(=O)N[C@@H](CC(C)C)C(=O)N[C@@H](CCC(=O)O)C(=O)N[C@@H](CCC(=O)O)C(=O)N[C@@H](CCC(N)=O)C(=O)N[C@@H](CCC(N)=O)C(=O)N[C@@H](CCCCN)C(=O)N[C@@H](CCCCN)C(=O)N[C@@H](CC(N)=O)C(=O)N[C@@H](CCC(=O)O)C(=O)N[C@@H](CCC(=O)O)C(=O)N[C@@H](CCC(=O)O)C(=O)N[C@@H](CC(C)C)C(=O)N[C@@H](CCCCN)C(=O)N[C@@H](CCCCN)C(=O)N[C@@H](CC(C)C)C(=O)N[C@@H](CCC(=O)O)C(=O)N[C@@H](CCC(=O)O)C(=O)N[C@@H](Cc1c[nH]c2ccccc12)C(=O)N[C@@H](C)C(=O)N[C@@H](CCCCN)C(=O)N[C@@H](CCCCN)C(=O)N[C@@H](Cc1c[nH]c2ccccc12)C(=O)N[C@@H](CC(N)=O)C(=O)N[C@@H](Cc1c[nH]c2ccccc12)C(=O)N[C@@H](Cc1ccccc1)C(N)=O` (Ac-YTSLIEELIKKLEEQQKKNEEELKKLEEWAKKWNWF-NH2), the EC50 [1] was 0.4 nM, the Activity [2] was 10.4% and the Activity [3] was 10.8%. The Tm [4] was 77.6 °C, the Tm [5] was 74 °C and the Activity [6] was 10.1%. It also gave a Tm [7] of 57.5 °C.

`CC[C@H](C)[C@H](NC(=O)[C@H](CC(C)C)NC(=O)[C@H](CO)NC(=O)[C@@H](NC(=O)[C@H](Cc1ccc(O)cc1)NC(C)=O)[C@@H](C)O)C(=O)N[C@@H](CCC(=O)O)C(=O)N[C@@H](CCC(=O)O)C(=O)N[C@@H](CC(C)C)C(=O)N[C@H](C(=O)N[C@@H](CCCCN)C(=O)N[C@@H](CCCCN)C(=O)N1CCC[C@H]1C(=O)N[C@@H](CCC(=O)O)C(=O)N[C@@H](CCC(=O)O)C(=O)N[C@@H](CCC(N)=O)C(=O)N[C@@H](CCC(N)=O)C(=O)N[C@@H](CCCCN)C(=O)N[C@@H](CCCCN)C(=O)N[C@@H](CC(N)=O)C(=O)N[C@@H](CCC(=O)O)C(=O)N[C@@H](CCC(=O)O)C(=O)N[C@@H](CCC(=O)O)C(=O)N[C@@H](CC(C)C)C(=O)N[C@@H](CCCCN)C(=O)N[C@@H](CCCCN)C(=O)N[C@@H](CC(C)C)C(=O)N[C@@H](CCC(=O)O)C(=O)N[C@@H](CCC(=O)O)C(=O)N[C@@H](Cc1c[nH]c2ccccc12)C(=O)N[C@@H](C)C(=O)N[C@@H](CCCCN)C(=O)N[C@@H](CCCCN)C(=O)N[C@@H](Cc1c[nH]c2ccccc12)C(=O)N[C@@H](CC(N)=O)C(=O)N[C@@H](Cc1c[nH]c2ccccc12)C(=O)N[C@@H](Cc1ccccc1)C(N)=O)[C@@H](C)CC` (Ac-YTSLIEELIKKPEEQQKKNEEELKKLEEWAKKWNWF-NH2) gave an EC50 [1] of 44 nM, an Activity [2] of 0.2% and an Activity [3] of 0.3%. It also gave a Tm [4] of 55.5 °C, a Tm [5] of 55 °C and an Activity [6] of 0%. The Tm [7] was 49.7 °C.

In the case of `CC[C@H](C)[C@H](NC(=O)[C@H](CC(C)C)NC(=O)[C@H](CCC(=O)O)NC(=O)[C@H](CCC(=O)O)NC(=O)[C@@H](NC(=O)[C@H](CC(C)C)NC(=O)[C@H](CO)NC(=O)[C@@H](NC(=O)[C@H](Cc1ccc(O)cc1)NC(C)=O)[C@@H](C)O)[C@@H](C)CC)C(=O)N[C@@H](CCCCN)C(=O)N[C@@H](CCCCN)C(=O)N[C@@H](CO)C(=O)N[C@@H](CCC(=O)O)C(=O)N[C@@H](CCC(=O)O)C(=O)N[C@@H](CCC(N)=O)C(=O)N[C@@H](CCC(N)=O)C(=O)N[C@@H](CCCCN)C(=O)N[C@@H](CCCCN)C(=O)N[C@@H](CC(N)=O)C(=O)N[C@@H](CCC(=O)O)C(=O)N[C@@H](CCC(=O)O)C(=O)N[C@@H](CCC(=O)O)C(=O)N[C@@H](CC(C)C)C(=O)N[C@@H](CCCCN)C(=O)N[C@@H](CCCCN)C(=O)N[C@@H](CC(C)C)C(=O)N[C@@H](CCC(=O)O)C(=O)N[C@@H](CCC(=O)O)C(=O)N[C@@H](Cc1c[nH]c2ccccc12)C(=O)N[C@@H](C)C(=O)N[C@@H](CCCCN)C(=O)N[C@@H](CCCCN)C(=O)N[C@@H](Cc1c[nH]c2ccccc12)C(=O)N[C@@H](CC(N)=O)C(=O)N[C@@H](Cc1c[nH]c2ccccc12)C(=O)N[C@@H](Cc1ccccc1)C(N)=O` (Ac-YTSLIEELIKKSEEQQKKNEEELKKLEEWAKKWNWF-NH2), the EC50 [1] is reported as 1.1 nM, the Activity [2] is reported as 8.2% and the Activity [3] is reported as 7.4%. It also gave a Tm [4] of 78.8 °C, a Tm [5] of 65.3 °C and an Activity [6] of 9.3%. The Tm [7] was 60 °C.

For `CC[C@H](C)[C@H](NC(=O)[C@H](CC(C)C)NC(=O)[C@H](CCC(=O)O)NC(=O)[C@H](CCC(=O)O)NC(=O)[C@@H](NC(=O)[C@H](CC(C)C)NC(=O)[C@H](CO)NC(=O)[C@@H](NC(=O)[C@H](Cc1ccc(O)cc1)NC(C)=O)[C@@H](C)O)[C@@H](C)CC)C(=O)N[C@@H](CCCCN)C(=O)N[C@@H](CCCCN)C(=O)N[C@H](C(=O)N[C@@H](CCC(=O)O)C(=O)N[C@@H](CCC(=O)O)C(=O)N[C@@H](CCC(N)=O)C(=O)N[C@@H](CCC(N)=O)C(=O)N[C@@H](CCCCN)C(=O)N[C@@H](CCCCN)C(=O)N[C@@H](CC(N)=O)C(=O)N[C@@H](CCC(=O)O)C(=O)N[C@@H](CCC(=O)O)C(=O)N[C@@H](CCC(=O)O)C(=O)N[C@@H](CC(C)C)C(=O)N[C@@H](CCCCN)C(=O)N[C@@H](CCCCN)C(=O)N[C@@H](CC(C)C)C(=O)N[C@@H](CCC(=O)O)C(=O)N[C@@H](CCC(=O)O)C(=O)N[C@@H](Cc1c[nH]c2ccccc12)C(=O)N[C@@H](C)C(=O)N[C@@H](CCCCN)C(=O)N[C@@H](CCCCN)C(=O)N[C@@H](Cc1c[nH]c2ccccc12)C(=O)N[C@@H](CC(N)=O)C(=O)N[C@@H](Cc1c[nH]c2ccccc12)C(=O)N[C@@H](Cc1ccccc1)C(N)=O)[C@@H](C)O` (Ac-YTSLIEELIKKTEEQQKKNEEELKKLEEWAKKWNWF-NH2), the EC50 [1] was 0.4 nM, the Activity [2] was 10% and the Activity [3] was 6.1%. The Tm [4] was 75.9 °C, the Tm [5] was 62.4 °C and the Activity [6] was 8.1%. It also gave a Tm [7] of 57.8 °C.

Work on `CC[C@H](C)[C@H](NC(=O)[C@H](CC(C)C)NC(=O)[C@H](CCC(=O)O)NC(=O)[C@H](CCC(=O)O)NC(=O)[C@@H](NC(=O)[C@H](CC(C)C)NC(=O)[C@H](CO)NC(=O)[C@@H](NC(=O)[C@H](Cc1ccc(O)cc1)NC(C)=O)[C@@H](C)O)[C@@H](C)CC)C(=O)N[C@@H](CCCCN)C(=O)N[C@@H](CCCCN)C(=O)N[C@@H](Cc1c[nH]c2ccccc12)C(=O)N[C@@H](CCC(=O)O)C(=O)N[C@@H](CCC(=O)O)C(=O)N[C@@H](CCC(N)=O)C(=O)N[C@@H](CCC(N)=O)C(=O)N[C@@H](CCCCN)C(=O)N[C@@H](CCCCN)C(=O)N[C@@H](CC(N)=O)C(=O)N[C@@H](CCC(=O)O)C(=O)N[C@@H](CCC(=O)O)C(=O)N[C@@H](CCC(=O)O)C(=O)N[C@@H](CC(C)C)C(=O)N[C@@H](CCCCN)C(=O)N[C@@H](CCCCN)C(=O)N[C@@H](CC(C)C)C(=O)N[C@@H](CCC(=O)O)C(=O)N[C@@H](CCC(=O)O)C(=O)N[C@@H](Cc1c[nH]c2ccccc12)C(=O)N[C@@H](C)C(=O)N[C@@H](CCCCN)C(=O)N[C@@H](CCCCN)C(=O)N[C@@H](Cc1c[nH]c2ccccc12)C(=O)N[C@@H](CC(N)=O)C(=O)N[C@@H](Cc1c[nH]c2ccccc12)C(=O)N[C@@H](Cc1ccccc1)C(N)=O` (Ac-YTSLIEELIKKWEEQQKKNEEELKKLEEWAKKWNWF-NH2) yielded an EC50 [1] of 20 nM, an Activity [2] of 5.2% and an Activity [3] of 7.6%. The Tm [4] was 62 °C, the Tm [5] was 61.4 °C and the Activity [6] was 7.7%. The Tm [7] was 53.2 °C.
